The test system of data set [1] is porcine red blood cells (RBCs). In words: Hemolysis assay. Format: cell-based, pig. As to conditions: 1% porcine RBCs in RPMI, 37°C 30–45 min, absorbance 415 nm, tested 1–128 μg/mL, 2% Triton-X100 = 100%; three independent experiments in duplicate, one maximum and one minimum data point dropped. The method, then:
Hemolysis experiments were performed to evaluate the toxicity of the selected peptides to RBCs. Whole blood from healthy donor pigs was purchased from Lampire Biological Laboratories (Pipersville, PA, USA), and RBCs were washed and isolated by centrifugation using Roswell Park Memorial Institute (RPMI) medium (Life Technologies, Grand Island, NY, USA). Peptides were suspended and serially diluted from 1280 to 10 μg/mL using RPMI medium in a 96‐well polypropylene microtiter plate, and then combined with 100 μL of the 1% RBC solution, providing a final AMP testing range of 128 to 1 μg/mL. Plates were centrifuged after an incubation at 37°C for 30–45 min, and 1/2 volume from each supernatant was transferred to a new 96‐well plate. The absorbance of the wells was measured at 415 nm utilizing the Cytation 5 Cell Imaging Multimode Reader (BioTek, CA, USA), and the peptide concentration that lysed 50% of the RBCs (HC50) was used to determine the hemolytic activity. Absorbance readings from wells containing RBCs treated with 11 μL of a 2% Triton‐X100 solution or RPMI medium (AMP solvent‐only) were used to define 100% and 0% hemolysis, respectively. We note that all centrifugation steps were performed at 500× g for 5 min in an Allegra‐6R centrifuge (Beckman Coulter, CA, USA).

The subject of data set [2] is Staphylococcus aureus ATCC 29213. The format is cell-based. As to the method: (§1) To measure the antimicrobial activity of our selected putative AMPs in vitro, broth microdilution assays were conducted to determine the minimum inhibitory and minimum bactericidal concentrations (MICs and MBCs, respectively), as outlined by the Clinical and Laboratory Standards Institute [CLSI] ([2015]). The adaptations for testing cationic AMPs, as described previously (Wiegand et al., [2008]), were incorporated. The selected peptides were tested against laboratory isolates of E. coli 25922 and S. aureus 29213, which were purchased from the American Type Culture Collection (ATCC; Manassas, VA, USA). Bacteria from frozen stocks were streaked onto nonselective Columbia blood agar with 5% sheep blood (Oxoid) and incubated for 18–24 h at 37°C. To ensure the uniform colony health before the assay, 2–4 colonies were streaked onto a new agar plate and incubated for another 18–24 h at 37°C on the next day. To create a standardized bacterial inoculum, isolated colonies were suspended in Mueller‐Hinton Broth (MHB; Sigma‐Aldrich, St. Louis, MO, USA). The suspension was adjusted to an optical density of 0.08–0.1 at 600 nm, which corresponds to a 0.5 McFarland standard of approximately 1–2 × 10^8 colony‐forming units (CFU)/mL. The inoculum was then diluted 1:250, resulting in a final concentration of 5 ± 3 × 10^5 CFU/mL. The target bacterial density was confirmed by measuring the total viability counts from the final tested inoculum.
(§2) The selected putative AMPs were purchased from and synthesized by GenScript (Piscataway, NJ, USA) in lyophilized format. The peptides were stored at −20°C and were suspended in sterile ultrapure water prior to testing. A two‐fold serial dilution of 1280 to 2.5 μg/mL was prepared in sterile 96‐well polypropylene microtiter plates (Greiner Bio‐One #650261, Kremsmünster, Austria). Then, 100 μL of the standardized bacterial inoculum was added to each well, resulting in a final AMP testing range of 128 to 0.25 μg/mL. The MIC values were determined as the lowest peptide concentration in which no visible bacterial growth was observed after a 20–24 h incubation at 37°C. To determine the MBC values, well contents of the MIC and the two adjacent wells containing the two‐ and four‐fold higher peptide concentrations were plated onto nonselective nutrient agar. The concentration in which 99.9% of the inoculum was killed after an incubation for 24 h at 37°C was reported as the MBC.
(§3) In our tests, we used Ranatuerin‐4—a known AMP from the American bullfrog (Goraya et al., [1998]), and an in‐house peptide [TKPKG]3 (OT15) as the positive and negative control peptides, respectively. We note that OT15 was truncated and derived from a negative control peptide [TKPKG]4 (OT20), not antimicrobial but sharing similar characteristics to AMPs, used in previous studies (Horváti et al., [2017]).

For data set [3], the system named is Escherichia coli ATCC 25922. Format: cell-based. As to the method: as §1, §2, §3
The mark [4] stands for this setting: broth microdilution (CLSI, adapted for cationic AMPs), MHB, 5 ± 3 × 10^5 CFU/mL, 20–24 h at 37°C, tested 0.25–128 μg/mL, range from three independent experiments in duplicate, one maximum and one minimum data point dropped.
The mark [5] stands for this setting: concentration killing 99.9% of inoculum, plated on nutrient agar, 24 h at 37°C, range from three independent experiments in duplicate, one maximum and one minimum data point dropped.

Where two headings read alike, the source gives them in different places. Residues, ends and D or L forms follow the SMILES beside them. No end group written: not given here.

For ILDKVRLWLARIRLNLLKR [PlVi1], the “HC50 (concentration that lyses 50% of RBCs), porcine RBCs” value in data set [1] was > 128 µg/mL.
With `CSCC[C@H](NC(=O)CNC(=O)[C@H](CO)NC(=O)[C@H](CCCNC(=N)N)NC(=O)[C@@H](NC(=O)[C@H](CO)NC(=O)[C@H](Cc1ccccc1)NC(=O)CNC(=O)[C@H](Cc1ccccc1)NC(=O)[C@@H](NC(=O)[C@H](CO)NC(=O)[C@H](CCCNC(=N)N)NC(=O)[C@H](CCCNC(=N)N)NC(=O)[C@@H](NC(=O)[C@H](C)NC(=O)[C@H](CS)NC(=O)[C@H](Cc1ccccc1)NC(=O)[C@H](CCC(N)=O)NC(=O)[C@H](C)NC(=O)[C@H](CCCNC(=N)N)NC(=O)CNC(=O)[C@H](C)NC(=O)[C@H](Cc1ccc(O)cc1)NC(=O)[C@H](C)NC(=O)[C@H](Cc1c[nH]c2ccccc12)NC(=O)[C@H](CCC(N)=O)NC(=O)[C@H](CO)NC(=O)[C@H](Cc1c[nH]c2ccccc12)NC(=O)[C@@H](N)CCCNC(=N)N)C(C)C)C(C)C)C(C)C)C(=O)N[C@H](C(=O)N[C@@H](CS)C(=O)N[C@@H](CCCNC(=N)N)C(=O)N1CCC[C@H]1C(=O)N[C@@H](CCCNC(=N)N)C(=O)N[C@@H](CCCNC(=N)N)C(=O)O)C(C)C` [MuMu1] (H-RWSQWAYAGRAQFCAVRRSVFGFSVRSGMVCRPRR-OH; N-terminus and C-terminus assumed), the “MIC, S. aureus ATCC 29213” value in data set [2] (ATCC 29213) is > 128 µg/mL. In addition, the “MBC, S. aureus ATCC 29213” value in data set [2] (ATCC 29213, 24 h) was > 128 µg/mL. Besides, in data set [3] (ATCC 25922), the “MIC, E. coli ATCC 25922” value is ≥ 128 µg/mL.
Turning to “QVWKRR [HoSa8, putative AMP mined from UniProt Q9BXP8, Homo sapiens]”, in data set [2] (setting [4]), the “MIC, S. aureus ATCC 29213” value was > 128 µg/mL. For the same compound, the “MBC, S. aureus ATCC 29213” value in data set [2] (setting [5]) was > 128 µg/mL. Moreover, in data set [3] (setting [4]), the “MIC, E. coli ATCC 25922” value was > 128 µg/mL. Moreover, the “MBC, E. coli ATCC 25922” value in data set [3] (setting [5]) is > 128 µg/mL.
Regarding RSIIRNGIRTLTWRKETKRKKK [ArTh11], in data set [2] (setting [4]), the “MIC, S. aureus ATCC 29213” value is > 128 µg/mL. Besides, the “MBC, S. aureus ATCC 29213” value in data set [2] (setting [5]) was > 128 µg/mL. In addition, the “MIC, E. coli ATCC 25922” value in data set [3] (ATCC 25922) and in data set [3] (setting [4]) was 64 to 128 µg/mL throughout.
For SYWWWGFHKNVIDRREAFYADLAEKKKAEN [CaGl1], the “MIC, S. aureus ATCC 29213” value in data set [2] (ATCC 29213) is > 128 µg/mL. The “MBC, S. aureus ATCC 29213” value in data set [2] (ATCC 29213, 24 h) is > 128 µg/mL. Also, the “MIC, E. coli ATCC 25922” value in data set [3] (ATCC 25922) is > 128 µg/mL. In addition, in data set [3] (ATCC 25922, 24 h), the “MBC, E. coli ATCC 25922” value was > 128 µg/mL.
As for “RFGRFLRKIRRFRPKVTITIQGSARFG [Chicken CATH-2, reference compound]”, in data set [2] (ATCC 29213), the “MIC, S. aureus ATCC 29213” value was 32 µg/mL. The “MBC, S. aureus ATCC 29213” value in data set [2] (ATCC 29213, 24 h) worked out at 32 µg/mL. In data set [3] (ATCC 25922), the “MIC, E. coli ATCC 25922” value lay within 8 to 16 µg/mL. Moreover, the “MBC, E. coli ATCC 25922” value in data set [3] (ATCC 25922, 24 h) lay within 8 to 16 µg/mL.
In the case of WLLVLQRGHRLASIKHVCQLSERKR [DaRe1], the “MIC, S. aureus ATCC 29213” value in data set [2] (ATCC 29213) was > 128 µg/mL. For the same compound, the “MBC, S. aureus ATCC 29213” value in data set [2] (ATCC 29213, 24 h) was > 128 µg/mL. The “MIC, E. coli ATCC 25922” value in data set [3] (ATCC 25922) fell in the range of 32 to 64 µg/mL. Moreover, the “MBC, E. coli ATCC 25922” value in data set [3] (ATCC 25922, 24 h) was 32 to 64 µg/mL.
Regarding VWEFFEAGAGLRASNASKKIYGVAKRFRR [DiVi1], in data set [2] (ATCC 29213), the “MIC, S. aureus ATCC 29213” value was > 128 µg/mL. For the same compound, in data set [2] (ATCC 29213, 24 h), the “MBC, S. aureus ATCC 29213” value is > 128 µg/mL. Further, the “MIC, E. coli ATCC 25922” value in data set [3] (ATCC 25922) was > 128 µg/mL. For the same compound, the “MBC, E. coli ATCC 25922” value in data set [3] (ATCC 25922, 24 h) was > 128 µg/mL.

The values are drawn from PMC11917140, “Mining the UniProtKB/Swiss‐Prot database for antimicrobial peptides” (Protein Science : A Publication of the Protein Society, 2025).
